Tested on: PopD C6 M-833 resistant clone (PfSTART1 N309K)
Test: Growth inhibition assay (72 h, LDH activity)
Assay type: cell-based, Plasmodium falciparum
Method: The drug was then removed, and parasites were allowed to recover. Another cycle of drug treatment (3 μM M-833) was then resumed. The resistant lines were cloned out by limiting dilution (diluting the culture into a 96-well plate to achieve an average of ~0.3 parasites per well), prior to growth inhibition assays and genomic DNA (gDNA) extraction (DNeasy Blood and Tissue kit (Qiagen)[18].
Parasite growth assays with inhibitory compounds were performed as per[11] and are fully described in the Supplementary Information.
Molecular biology and transfection of P. falciparum: CRISPR method.
The full 5’ homology region of pfstart1 (either WT, N309K or N330K) was amplified from pPfSTART1-HA-2A-Neo-glmS with the same 5’ BglII primer and a new 3’ primer that replaced with PstI with SpeI and introduced a stop codon. The PCR product was then digested with BglII and SpeI and inserted into similarly digested p1.2 parasite vector2. The p1.2 vector had previously been inserted with a homology region amplified from the 3’ end of the pfstart1 gene (3’HB) to form a second homology block for double recombination. The primers used to amplify 3’HB are listed primers listed in […]
60 μg of p1.2-PfSTART1(WT/N309K/N330K) plasmid was linearised with KasI, precipitated in 3 M sodium acetate and ethanol (70% final concentration) overnight at -20°C. The DNA pellet was washed in cold 70% ethanol and resuspended in cytomix 3.
50 μ M of crRNA ( Table S 2) and 50 μM of tracRNA (Integrated DNA Technologies) were allowed to form a duplex (5 min at 95°C), and Cas9 enzyme (Integrated DNA Technologies) was added, and incubated for 20 min at room temperature 4. This crRNA -tracRNA -Cas9 mix was added to each DNA preparation and transfected to 3D7 ring parasites using the Bio -Rad Gene Pulser at 310 V and 950 μF.
Parasites containing the transfected DNA were selected using 2.5 nM WR99210 (Jacobus). Parasites lines were cloned using limiting dilution. Correct integration was tested by PCR (using primer START_5’UTR.F and START_Int.R1 , Table S 2), and sequencing was done using the primers START_3F and START_Int.R2 (Table S 2).
Growth inhibition assays. Synchronised ring-stage parasites (0.3-0.6% parasitemia, 2% haematocrit) were grown for 72 h in a serial-dilution of the compound under […]
and compound 4. Note that M-833 was first purchased from MolPort (MolPort -002-267-916) then made in-house at WEHI: the differences observed in EC50s across experiments are attributed to the different batches of M -833. For some experiments, 0, 0.25 or 2.5 mM of glucosamine (GlcN) was also added. Experiments were set up in technical duplicates or triplicates. Following a freeze -thaw cycle, lactate dehydrogenase (LDH) activity was assessed as an indicator of parasite growt h 5. 30 μL of parasite culture was incubated for 30 min in the dark with 75 μL Malstat mixture (0.1 M Tris pH 9.0, 20 g/L lactic acid, pH 7.5, 0.2% Triton-X100, 0.5 g/L acetylpyridine adenine dinucleotide (APAD, Sigma), 200 μg/mL nitroblue tetrazolium (NBT; Sigma), 1 μg/mL phenozine ethosulfate (PES; Sigma)). Absorbance was then measured at 650 nm, transformed using the formula below, plotted against the logarithm of the concentrations, and a non-linear regression (log(inhibitor) vs. response, variable slope) was calculated using GraphPad Prism to assess the half-inhibitory […]
Growth inhibition % = (1 − average(sample)− average(uRBC)) ∗ 100 […]
The DMSO samples were also used to assess growth of parasite in the presence of 0.25 and 2.5 mM GlcN (normalised by DMSO in 0 mM GlcN).
Egress, invasion & recovery assay. To measure egress, invasion and follow up recovery in the presence of different compounds, we adapted the method developed in6, using Hyp1-Nluc parasites7. These parasites episomally express the exported PEXEL protein Hyp1 (PF3D7_0113300) tagged with a NanoLuc luciferase (NLuc) and were selected with 2.5 nM WR99210 (Jacobus). Highly synchronised schizonts were […]

Structure (SMILES): Cc1cc(Cl)c(S(=O)(=O)N2CCCC2)cc1OCC(=O)NC1CCCCC1 [M-833]
- Normalised to DMSO (M-833 0.0390625 uM, Pop D-C6 replicate 1): 106.597
- Normalised to DMSO (M-833 0.0390625 uM, Pop D-C6 replicate 3): 109.19
- Normalised to DMSO (M-833 0.078125 uM, Pop D-C6 replicate 1): 104.398
- Normalised to DMSO (M-833 0.078125 uM, Pop D-C6 replicate 3): 106.818
- Normalised to DMSO (M-833 0.15625 uM, Pop D-C6 replicate 1): 106.528
- Normalised to DMSO (M-833 0.15625 uM, Pop D-C6 replicate 3): 112.747
- Normalised to DMSO (M-833 0.3125 uM, Pop D-C6 replicate 1): 101.389
- Normalised to DMSO (M-833 0.3125 uM, Pop D-C6 replicate 3): 96.5909
- Normalised to DMSO (M-833 0.625 uM, Pop D-C6 replicate 1): 99.6991
- Normalised to DMSO (M-833 0.625 uM, Pop D-C6 replicate 3): 97.6285
- Normalised to DMSO (M-833 1.25 uM, Pop D-C6 replicate 1): 88.1713
- Normalised to DMSO (M-833 1.25 uM, Pop D-C6 replicate 3): 89.9209
- Normalised to DMSO (M-833 2.5 uM, Pop D-C6 replicate 1): 68.7963
- Normalised to DMSO (M-833 2.5 uM, Pop D-C6 replicate 3): 69.4664
- Normalised to DMSO (M-833 5 uM, Pop D-C6 replicate 1): 41.5972
- Normalised to DMSO (M-833 5 uM, Pop D-C6 replicate 3): 40.2668
- Normalised to DMSO (M-833 10 uM, Pop D-C6 replicate 1): 22.7778
- Normalised to DMSO (M-833 10 uM, Pop D-C6 replicate 3): 32.2628
- inhibition at 0.0390625 µM (Plasmodium falciparum, M-833 0.0390625 uM, Pop D-C6 replicate 1): -6.6%
- inhibition at 0.0390625 µM (Plasmodium falciparum, M-833 0.0390625 uM, Pop D-C6 replicate 3): -9.19%
- inhibition at 0.078125 µM (Plasmodium falciparum, M-833 0.078125 uM, Pop D-C6 replicate 1): -4.4%
- inhibition at 0.078125 µM (Plasmodium falciparum, M-833 0.078125 uM, Pop D-C6 replicate 3): -6.82%
- inhibition at 0.15625 µM (Plasmodium falciparum, M-833 0.15625 uM, Pop D-C6 replicate 1): -6.53%
- inhibition at 0.15625 µM (Plasmodium falciparum, M-833 0.15625 uM, Pop D-C6 replicate 3): -12.7%
- inhibition at 0.3125 µM (Plasmodium falciparum, M-833 0.3125 uM, Pop D-C6 replicate 1): -1.39%
- inhibition at 0.3125 µM (Plasmodium falciparum, M-833 0.3125 uM, Pop D-C6 replicate 3): 3.41%
- inhibition at 0.625 µM (Plasmodium falciparum, M-833 0.625 uM, Pop D-C6 replicate 1): 0.301%
- inhibition at 0.625 µM (Plasmodium falciparum, M-833 0.625 uM, Pop D-C6 replicate 3): 2.37%
- inhibition at 1.25 µM (Plasmodium falciparum, M-833 1.25 uM, Pop D-C6 replicate 1): 11.8%
- inhibition at 1.25 µM (Plasmodium falciparum, M-833 1.25 uM, Pop D-C6 replicate 3): 10.1%
- inhibition at 2.5 µM (Plasmodium falciparum, M-833 2.5 uM, Pop D-C6 replicate 1): 31.2%
- inhibition at 2.5 µM (Plasmodium falciparum, M-833 2.5 uM, Pop D-C6 replicate 3): 30.5%
- inhibition at 5 µM (Plasmodium falciparum, M-833 5 uM, Pop D-C6 replicate 1): 58.4%
- inhibition at 5 µM (Plasmodium falciparum, M-833 5 uM, Pop D-C6 replicate 3): 59.7%
- inhibition at 10 µM (Plasmodium falciparum, M-833 10 uM, Pop D-C6 replicate 1): 77.2%
- inhibition at 10 µM (Plasmodium falciparum, M-833 10 uM, Pop D-C6 replicate 3): 67.7%
- inhibition at 0.0390625 µM (Plasmodium falciparum, Pop D-C6 replicate 1, M-833 0.0390625 uM): -0.105%
- inhibition at 0.078125 µM (Plasmodium falciparum, Pop D-C6 replicate 1, M-833 0.078125 uM): -0.157%
- inhibition at 0.15625 µM (Plasmodium falciparum, Pop D-C6 replicate 1, M-833 0.15625 uM): 1.36%
- inhibition at 0.3125 µM (Plasmodium falciparum, Pop D-C6 replicate 1, M-833 0.3125 uM): 4.07%
- inhibition at 0.625 µM (Plasmodium falciparum, Pop D-C6 replicate 1, M-833 0.625 uM): 7.36%
- inhibition at 1.25 µM (Plasmodium falciparum, Pop D-C6 replicate 1, M-833 1.25 uM): 9.35%
- inhibition at 2.5 µM (Plasmodium falciparum, Pop D-C6 replicate 1, M-833 2.5 uM): 19.4%
- inhibition at 5 µM (Plasmodium falciparum, Pop D-C6 replicate 1, M-833 5 uM): 34.9%
- inhibition at 10 µM (Plasmodium falciparum, Pop D-C6 replicate 1, M-833 10 uM): 62%
- EC50 (Plasmodium falciparum, read-out: EC50 (95% confidence interval)): 4.19 µM
- Normalised to DMSO (Pop D-C6 replicate 1, M-833 0.0390625 uM): 100.105
- Normalised to DMSO (Pop D-C6 replicate 1, M-833 0.078125 uM): 100.157
- Normalised to DMSO (Pop D-C6 replicate 1, M-833 0.15625 uM): 98.6386
- Normalised to DMSO (Pop D-C6 replicate 1, M-833 0.3125 uM): 95.9333
- Normalised to DMSO (Pop D-C6 replicate 1, M-833 0.625 uM): 92.6433
- Normalised to DMSO (Pop D-C6 replicate 1, M-833 1.25 uM): 90.6536
- Normalised to DMSO (Pop D-C6 replicate 1, M-833 2.5 uM): 80.5829
- Normalised to DMSO (Pop D-C6 replicate 1, M-833 5 uM): 65.0842
- Normalised to DMSO (Pop D-C6 replicate 1, M-833 10 uM): 37.9963

From paper PMC11189555, “Aryl amino acetamides prevent Plasmodium falciparum ring development via targeting the lipid-transfer protein PfSTART1” (Nature Communications, 2024)
